Columns and labels:
PBMC [1] = test: LPS-induced IL-6 production by PBMC, effect of peptides; type: cell-based, human
Experimental: 100 μl of culture medium consisting of RPMI1640 supplemented with 200 IU/ml penicillin, 200 μg/ml streptomycin, 4 mM L-glutamine (Sigma Chemical, Mo., US) and 20% fresh heat-inactivated autologous serum were added to un-coated or -pre-coated microtiter plates followed by 100 μl of PBMC suspension (5×10^4 lymphocytes) in RPMI/2% HSA with peptides at the indicated concentrations. Lipoplysaccharide (LPS, Sigma Chemical Co, MO, US) was added at a final concentration of 0.05 ng/ml. […] All assay conditions were set up in triplicate wells. Supernatants (SNs) were harvested after 24 hrs and residual cells were removed by centrifugation in a refrigerated centrifuge (Beckman) at 2600×g for 5 minutes. SNs were frozen and stored at −70° C. IL-6 in cell culture SNs was measured by ELISA using the DuoSet® ELISA development kit for human IL-6 (R&D Systems Europe, Ltd., Abingdon, UK) following the manufacturer's recommended procedures. The lower limit of detection was 3.1 pg/ml. Samples were analysed as mean of triplicate wells.

PBMCs = test: PHA-induced proliferation of PBMC in the presence of albumin peptides and/or dHSA; type: cell-based, human; conditions: PBMCs from two healthy controls; two PHA concentrations
Excerpt: Venous blood was drawn from healthy volunteers or from cancer patients in glass vacuum tubes with acid dextrose citrate solution A as anti-coagulant (Vacutainer, Becton Dickinson, Franklin Lakes, N.J.). Erythrocytes were removed by sedimentation on 2% dextran T500 solution (Amersham Pharmacia Biotech AB, Uppsala, Sweden) in 0.9% NaCl (this step was omitted for cultures with PHA-stimulation-see below). […] For cell cultures with PHA-stimulation, PBMC were washed in Hank's Balanced Salt Solution (HBSS) with 10% autologous plasma instead of RPMI/2% HSA. […] The cell suspension was stained with Turk's solution and the number of lymphocytes and monocytes in the PBMC preparation were counted in a hemocytometer. PBMCs were suspended in RPMI/2% HSA and the cell concentration adjusted to 5×10^5 lymphocytes/ml.
100 μl of the cell suspension were seeded into round-bottomed microtiter plates (Corning, N.Y., USA) followed by 100 μl of culture medium consisting of RPMI 1640 (Flow Laboratories, Irvine, Scotland) supplemented with 200 IU/ml Penicillin, 200 μg/ml Streptomycin (Flow laboratories) and 20% heat inactivated autologous serum. Phytohemagglutinin (PHA-P, Sigma Chemical Co, St. Louis, Mo.) at a final concentration of 5 or 10 μg/ml was then added.
All culture conditions were set up in triplicate wells. […] Mean values of disintegrations per minute (dpm) of triplicates were used for the calculations.

PBMC [2] = test: IL-2 induced proliferation of PBMC with albumin peptides in coated and uncoated tissue culture plates; type: cell-based, human; conditions: PBMC from healthy individuals; peptide 5 μg/ml final; 7 days
Experimental: A mixture of 1 mg/ml IgG in a solution of 9 mg/ml HSA in RPMI (HSA/IgG) was also prepared. 200 μl of HSA or HSA/IgG were then added to each well of the plate. The plates were incubated at 4° C. for 30 minutes after which the wells were washed twice with 200 μl of RPMI1640. The coated plates were used immediately. […] PBMC, isolated from healthy individuals, were diluted in RPMI/2% HSA and peptides were added directly to the cell suspension at a concentration of 10 μg/ml.

PBMC [3] = test: Human ex vivo model: IL-2 induced proliferation of PBMC in the presence of albumin peptides; conditions: alone or in combination
[4] = target: T1, β2-integrin LFA-1 (CD11a) (Homo sapiens, UniProt P20701); test: Immunocytochemical staining of PBMC and THP-1 with anti-integrin (CD11a) antibody with or without albumin peptides; type: binding; conditions: for binding to LFA-1: Table 9 summary; for effect on binding of the LFA-1 antibody (HI 111) to LFA-1: mononuclear blood cells
T1 construct: endogenous in cells; host or cells: human PBMC (healthy controls, cancer patients) and THP-1 monocytic cell line (ATCC)
T1 sequence (P20701 26-1170): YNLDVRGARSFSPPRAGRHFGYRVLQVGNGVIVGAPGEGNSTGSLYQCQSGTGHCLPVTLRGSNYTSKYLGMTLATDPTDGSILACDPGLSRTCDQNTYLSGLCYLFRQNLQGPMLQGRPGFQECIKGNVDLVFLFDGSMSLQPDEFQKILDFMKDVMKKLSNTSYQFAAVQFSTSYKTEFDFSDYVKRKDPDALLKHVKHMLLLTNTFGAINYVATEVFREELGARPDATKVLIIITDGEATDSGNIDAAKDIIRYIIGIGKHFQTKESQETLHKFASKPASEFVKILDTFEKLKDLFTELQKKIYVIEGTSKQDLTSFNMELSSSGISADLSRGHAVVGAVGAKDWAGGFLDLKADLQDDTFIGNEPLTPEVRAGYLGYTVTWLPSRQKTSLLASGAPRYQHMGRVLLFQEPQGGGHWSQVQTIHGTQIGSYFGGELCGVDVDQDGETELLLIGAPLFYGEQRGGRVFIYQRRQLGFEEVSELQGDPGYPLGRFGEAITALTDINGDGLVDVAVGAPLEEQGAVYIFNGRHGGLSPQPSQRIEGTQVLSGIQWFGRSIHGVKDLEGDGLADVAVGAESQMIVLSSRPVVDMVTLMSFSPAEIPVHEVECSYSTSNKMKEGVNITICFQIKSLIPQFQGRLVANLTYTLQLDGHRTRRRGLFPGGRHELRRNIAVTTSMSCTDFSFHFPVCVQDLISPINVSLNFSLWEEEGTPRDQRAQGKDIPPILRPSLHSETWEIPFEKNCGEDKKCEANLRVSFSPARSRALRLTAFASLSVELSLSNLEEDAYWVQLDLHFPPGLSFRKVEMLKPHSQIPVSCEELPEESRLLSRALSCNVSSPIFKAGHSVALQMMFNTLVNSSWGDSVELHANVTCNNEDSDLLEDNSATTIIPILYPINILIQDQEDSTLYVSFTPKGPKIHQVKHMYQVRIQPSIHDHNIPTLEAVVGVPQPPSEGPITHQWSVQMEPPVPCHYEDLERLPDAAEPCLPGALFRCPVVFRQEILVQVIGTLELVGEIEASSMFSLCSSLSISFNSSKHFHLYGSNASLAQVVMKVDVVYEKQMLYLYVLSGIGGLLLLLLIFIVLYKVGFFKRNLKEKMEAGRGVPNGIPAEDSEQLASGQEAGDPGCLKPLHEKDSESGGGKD
T1 sequence (P05107 23-769 partner): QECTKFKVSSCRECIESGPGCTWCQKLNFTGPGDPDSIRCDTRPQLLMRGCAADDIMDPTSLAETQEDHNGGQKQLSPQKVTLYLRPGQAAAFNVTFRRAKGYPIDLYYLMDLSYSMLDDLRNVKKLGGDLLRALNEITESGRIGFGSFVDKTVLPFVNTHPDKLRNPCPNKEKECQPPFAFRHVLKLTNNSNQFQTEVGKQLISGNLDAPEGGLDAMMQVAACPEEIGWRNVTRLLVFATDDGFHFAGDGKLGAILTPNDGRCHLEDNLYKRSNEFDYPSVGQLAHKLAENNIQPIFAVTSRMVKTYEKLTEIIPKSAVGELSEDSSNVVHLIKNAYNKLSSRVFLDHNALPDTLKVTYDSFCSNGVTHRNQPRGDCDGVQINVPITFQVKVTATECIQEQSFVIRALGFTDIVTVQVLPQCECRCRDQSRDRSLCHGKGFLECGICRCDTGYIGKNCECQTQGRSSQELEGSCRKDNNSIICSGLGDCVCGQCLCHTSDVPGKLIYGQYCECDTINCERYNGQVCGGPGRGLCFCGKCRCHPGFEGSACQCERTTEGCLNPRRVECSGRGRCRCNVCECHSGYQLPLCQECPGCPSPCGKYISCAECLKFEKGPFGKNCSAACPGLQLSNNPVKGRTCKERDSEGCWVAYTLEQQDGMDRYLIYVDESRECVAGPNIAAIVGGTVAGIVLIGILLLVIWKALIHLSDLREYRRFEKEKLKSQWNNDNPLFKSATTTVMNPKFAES
Experimental: Cytospin preparations of mononuclear blood cells from healthy controls, cancer patients and a monocytic cell line, THP-1, were prepared (as described under materials and methods), dried and stored at −70° C. In the immunocytological staining, unspecific staining was blocked by incubation with 10% human AB serum. Some of the slides were preincubated for 60 minutes with albumin peptides at a concentration of 40 μg/ml, added to this 10% AB serum, as indicated in the FIG. 8 A-F. The staining procedure was then continued as described in material and methods. The staining intensity of slides stained with and without preincubation with the peptides was recorded semi quantitatively using a standard light microscope.
PBMC were separated as described above. Cultured THP-1 cells (obtained from the American Type Culture Collection through LGL Nordic AB, Sweden) were carefully washed and suspended in RPMI1640. PBMC and THP-1 were immediately spun down on pre-cleaned microscope slides in a Shandon Cytospin (Shandon Scientific Ltd, UK) at 1000 RPM for 7 min at 2.5 or 5×10^4 cells per slide. The slides were left to dry at room temperature over night, after which they were wrapped in parafilm and stored at −70° C. Immediately before use, the cytospins were thawed and fixed with acetone for 5 min at room temperature. The cytospins were first blocked with 10% normal human AB-serum with and without albumin peptides (40 ␣g/ml) for 1 h before staining. Primary antibody, consisting of a monoclonal mouse anti-human CD11a (clone HI111, BD Biosciences) diluted in Tris buffered saline (TBS, pH 7.6) at 5 μg/ml (THP-1) or 1 µg/ml (PBMC), was added. The slides were incubated for 30 min and then washed in TBS followed by Envision-Alkaline Phosphatase (Dako Norden A/S, Denmark) for 30 min. After additional washing in TBS, the slides were incubated in alkaline phoshatase substrate consisting of Fast Red TR salt (Sigma), naphtol AS-MX (Sigma) and 5 mM levamisol (Sigma) to block endogenous alkaline phosphatase activity, for 20 min followed by washing in TBS. They were then counterstained in Mayer's haematoxylin for 1 minute and mounted in Glycergel (Dako Norden NS). Monoclonal mouse IgG1 against an irrelevant antigen (Aspergillus niger glukosoxidase, Dako Norden NS) was used as a negative control. All incubations were performed at room temperature in a moist chamber.
FIG. 24. Inhibition of the binding of anti-LFA-1, mab HI111, to mononuclear blood cells by 3028 peptide and fragments 3325 and 3218. A standard immunohistochemical staining procedure using acetone fixation, 10% human AB-serum for blocking, incubation with HI 111 and a secondary antibody (Ultravision, an alkaline phosphate conjugated polymer attached to Fab-fragments of goat anti-mouse Ig), followed by development with Fast Red. The slides were then mounted in Glycergel. Preincubation with peptides added to the AB serum was as follows: A. No peptide added, B. peptide 3028, C. The C-terminal part (3218), and D. The N-terminal part (3325).

rabbit anti-3028 = test: Inhibition of rabbit anti-3028 ELISA by albumin peptides; type: binding; conditions: Table 9 summary
Experimental: To test if albumin peptides inhibited the binding of the rabbit anti-3028 to 3028 coated wells, rabbit antisera, diluted 1/1000 000 in ELISA reagent diluent, was pre-incubated for 1 hr at room temperature with the indicated concentrations of the peptides. 100 μl of the […], or, alternatively, the monoclonal antibody mixed with peptides, was then added to 3028 coated wells and the ELISA carried out as described.

[5] = tested on: natural killer (NK) cells; test: Cytotoxic activity of natural killer (NK) cells against K562 (NKTEST, flow cytometry); type: cell-based, human; conditions: four healthy donors; peptides 10 ug/ml; effector:target ratio 40:1
Experimental: Mononuclear cells were separated by standard Ficoll-paque Plus (Pharmacia AB, Sweden) density gradient centrifugation from heparinized blood obtained from healthy donors. NK cell cytotoxic activity of the mononuclear cells was then tested using a commercial kit (NKTEST, Orpegen Pharma GmbH, Heidelberg, Germany) following the manufacturers protocol. Briefly, the kit contains cryopreserved, NK-sensitive target cells (K562) labelled with a lipophilic green fluorescent membrane dye, which enables discrimination of effector and target cells. After incubation with effector cells, killed target cells are identified by a DNA-stain, which penetrates and specifically stain the nuclei of dead target cells. This way the percentage of killed targets can be determined by flow cytometry. The mononuclear cells were pre-incubated for 30 min at 37° C. with the indicated peptides (peptides have been described previously) at 10 ug/ml. Target cells were then added, giving an effector:target ratio of 40:1, and the cell mixture incubated at 37° C. for 3-4 hours. Samples were analysed on a FACSCalibur (BD Biosciences, San Jose, Calif.).

| binding to LFA-1 [4] | binding to affinity purified antibodies (rabbit anti-3028) | Substance | effect on LPS induced IL-6 production (PBMC [1]; healthy control PBMC1) | effect on LPS induced IL-6 production (PBMC [1]; healthy control PBMC 2) | effect on LPS induced IL-6 production (PBMC [1]; renal cell carcinoma patient) | effect on dHSA modulated PHA stimulated proliferation (PBMCs) | effect on IL-2 induced proliferation (PBMC [2]) | neutralisation of the inhibitory effect of peptide 3028 on IL-2 induced proliferation (PBMC [3]) | effect on binding of the LFA-1 antibody (HI 111) to LFA-1 [4] | effect on LPS induced IL-6 production (PBMC [1]; melanoma patients) | effect on LPS induced IL-6 production (PBMC [1]; two healthy controls) | effect on percent specific lysis of K562 target cells [5] |
| --- | --- | --- | --- | --- | --- | --- | --- | --- | --- | --- | --- | --- |
|  |  | NEETFLKKYLYEIARRHPYFYAP [peptide 3026] | clear biphasic effect | no certain effect | stimulatory effect | inhibited the stimulatory activity of dHSA | no statistically significant activity |  |  |  |  |  |
| Weak binding | Does not bind | peptide 3218: C-terminal part of peptide 3028 (EPQNLIK) |  |  |  |  |  | not neutralised | inhibit the binding of mAb HI 111 to LFA-1 |  |  |  |
|  |  | ELFEQLGEYKFQNALLVR [peptide 3027] |  |  | stimulatory effect |  | no statistically significant activity |  |  | stimulated one of the melanoma patients | slightly stimulatory in one of the controls and had an inhibitory effect in the other | Inhibition was not seen |
| Weak binding |  | VFDEFKPLVE [peptide 3325, N-terminal part of peptide 3028] |  |  |  |  |  | not neutralised | inhibit the binding of mAb HI 111 to LFA-1 |  |  |  |

Reference: patent US9796777B2, “Methods of treating malignant tumors” (Canimguide Therapeutics AB, priority 2007, dated 2017)
